Experimental data as given in paper PMC3413639 (PLoS ONE, 2012).
Read-outs that look alike come from different tables or passages of the source.

Tests used:
5-HT1A receptors [1] = target: T1, 5-HT1A receptors (Rattus norvegicus, UniProt P19327); assay: [11C]WAY-100635-PET, BPND and 5-HT1A receptor occupancy; format: in vivo; set-up: Twenty-micrometer-thick frozen brain sections were preincubated; from tissue; host or cells: rat brain (hippocampus and raphe nucleus): frozen sections or living animals; settings: for BPND Hippocampus / BPND Raphe: [11C]WAY-100635; for receptor occupancy at 3 mg/kg / ED50 / receptor occupancy at 1 mg/kg / receptor occupancy at 10 mg/kg / receptor occupancy at 30 mg/kg: rat, ip; for ED50: read-out: ED50 (5-HT1A receptor occupancy), intraperitoneal, PET
T1 sequence (P19327 1-422): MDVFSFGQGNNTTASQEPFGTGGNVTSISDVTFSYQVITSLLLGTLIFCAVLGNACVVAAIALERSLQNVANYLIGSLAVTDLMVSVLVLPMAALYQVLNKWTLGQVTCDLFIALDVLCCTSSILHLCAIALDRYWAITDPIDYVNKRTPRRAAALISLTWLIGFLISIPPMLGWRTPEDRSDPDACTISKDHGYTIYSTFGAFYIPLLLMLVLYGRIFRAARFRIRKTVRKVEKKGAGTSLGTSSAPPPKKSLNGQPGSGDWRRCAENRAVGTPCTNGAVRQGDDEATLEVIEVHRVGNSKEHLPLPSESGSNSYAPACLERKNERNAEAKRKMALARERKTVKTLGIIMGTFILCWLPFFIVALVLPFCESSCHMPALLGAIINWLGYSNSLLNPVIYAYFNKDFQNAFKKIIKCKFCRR
Protocol: All PET scans were carried out using a microPET Focus 220 scanner (Siemens Medical Solutions USA, Knoxville, TN). The rats were anesthetized with 1.5–2% isoflurane in air (2 L/min flow rate). […] All list-mode data were stored into 3D sinograms, which were then Fourier-rebinned into 2D sinograms (26 frames: 4×1, 8×2, and 14×5 min). Images were reconstructed using 2D-filtered back-projection with a 0.5-mm Hanning filter. All PET images were manually coregistered to the MRI template by spatial translation and rotation of original PET images without geometric expansion and contraction. ROIs were placed on the hippocampus and raphe nucleus using PMOD® image analysis software (PMOD Group, Zurich, Switzerland) with reference to the MRI template. Fine-tuning of the location of ROIs was then performed based on PET images at an early phase (0–30 min) of the scan in order to compensate for small mismatches between coregistered PET and MR images. The cerebellum was used as reference tissue because of its negligible density of 5-HT1A receptors.

5-HT1A receptors [2] = target: T1, 5-HT1A receptors; assay: Autoradiographic [35S]GTPγS binding in rat brain sections; format: biochemical; set-up: Twenty-micrometer-thick frozen brain sections were preincubated; from tissue; host or cells: rat brain (hippocampus and raphe nucleus): frozen sections or living animals
Protocol: Autoradiographic procedures were performed as described previously, with some modifications. The sections were preincubated for 15 min in 50 mM 4-(2-hydroxyethyl)-1-piperazineethanesulfonic acid (HEPES; pH 7.4) containing 10 mM NaCl, 3 mM MgCl2 and 0.2 mM ethylene glycol tetraacetic acid. A second preincubation using the same buffer containing 2 mM GDP was performed for 15 min. The sections were subsequently incubated in the same buffer containing 2 mM GDP, 0.2 mM dithiothreitol and 0.04 nM [^35S]GTPγS for 120 min. Basal [^35S]GTPγS binding was defined in the absence of test drugs. […] Nonspecific binding was estimated using 10 µM nonradioactive GTPγS. The incubation was terminated by ice-cold 50 mM HEPES (pH 7.0). The sections were desalted with ice-cold distilled water, dried, and placed in contact with an imaging plate for 2 days. Signal detection and image analysis were performed as described above.

5-HT1A receptors [3] = target: T1, 5-HT1A receptors; assay: Ex vivo ARG, 5-HT1A receptor occupancy after drug administration; format: in vivo; set-up: Twenty-micrometer-thick frozen brain sections were preincubated; from tissue; host or cells: rat brain (hippocampus and raphe nucleus): frozen sections or living animals; settings: for ED50: rat, ip, read-out: ED50 (5-HT1A receptor occupancy), intraperitoneal, ex vivo ARG
Protocol: Animals were then killed by decapitation 5 h and 30 min after their administration, respectively. Autoradiographic analysis was performed using procedures similar to in vitro ARG except for incubation temperature (37°C) and times for preincubation (30 sec), incubation (5 min) and rinsing (1 min). […] The doses of these drugs at half-maximal effect (ED50) were determined according to the following relationship: [drawing 2] where D is the dose of the drug.

[4] = humans; cited from earlier work
5-HT1A receptors [5] = settings: maximal safe dose; cited from earlier work
[6] = rats; cited from earlier work
5-HT1A receptors [7] = target: T1, 5-HT1A receptors; assay: In vitro ARG, inhibition of [11C]WAY-100635 binding in rat brain sections; set-up: Twenty-micrometer-thick frozen brain sections were preincubated; from tissue; host or cells: rat brain (hippocampus and raphe nucleus): frozen sections or living animals; settings: hippocampus and raphe nucleus; up to 1000 nM
Protocol: Rats were sacrificed by decapitation. Twenty-micrometer-thick frozen brain sections were preincubated for 30 min in 50 mM Tris-HCl (pH 7.4) containing 1 mM MnCl2. […] Subsequently, the sections were rinsed twice with ice-cold Tris-HCl buffer for 5 min and then desalted with ice-cold distilled water for 10 sec. These samples were warmly blow-dried and placed in contact with an imaging plate (Fuji Film, Tokyo, Japan) for 60 min. Signals on the imaging plate were detected by BAS5000 system (Fuji Film).

5-HT1A receptors [8] = target: T1, 5-HT1A receptors; assay: [11C]WAY-100635-PET of rats treated with 5,7-DHT, a toxicant for 5-HT neurons; settings: 150 µg into right lateral ventricle, scan more than 2 weeks later
[9] = 1 mg/kg intraperitoneal, about 30 min before scan, mean ± S.E.
[10] = 3 mg/kg intraperitoneal + 30 mg/kg fluvoxamine (FLV) oral 30 min before pindolol, mean ± S.E.
[11] = 3 mg/kg intraperitoneal, about 30 min before scan, mean ± S.E.
[12] = 10 mg/kg intraperitoneal, about 30 min before scan, mean ± S.E.
[13] = 30 mg/kg intraperitoneal, about 30 min before scan, mean ± S.E.
[14] = read-out: Occupancy (%) Hippocampus

CC(C)NCC(O)COc1cccc2[nH]ccc12 (stereo not drawn) [Pindolol, reference compound]
BPND Hippocampus (5-HT1A receptors [1]; [9]): 4.787±0.676
BPND Raphe (5-HT1A receptors [1]; [9]): 1.129±0.164
BPND Hippocampus (5-HT1A receptors [1]; [10]): 3.670±0.315
BPND Raphe (5-HT1A receptors [1]; [10]): 0.783±0.178
BPND Hippocampus (5-HT1A receptors [1]; [11]): 3.517±0.119
BPND Raphe (5-HT1A receptors [1]; [11]): 0.752±0.093
BPND Hippocampus (5-HT1A receptors [1]; [12]): 2.190±0.757
BPND Raphe (5-HT1A receptors [1]; [12]): 0.459±0.153
BPND Raphe (5-HT1A receptors [1]; 30 mg/kg intraperitoneal + 30 mg/kg fluvoxamine (FLV) oral 30 min before pindolol): 0
BPND Hippocampus (5-HT1A receptors [1]; 30 mg/kg intraperitoneal + 30 mg/kg fluvoxamine (FLV) oral 30 min before pindolol, mean ± S.E.): 0.343±0.065
BPND Hippocampus (5-HT1A receptors [1]; [13]): 0.441±0.173
BPND Raphe (5-HT1A receptors [1]; [13]): 0.029±0.029
receptor occupancy at 3 mg/kg (5-HT1A receptors [1]; read-out: Difference in occupancy between hippocampus and raphe nucleus): ~50%
ED50 (5-HT1A receptors [1]; hippocampus): 5.6 mg/kg
ED50 (5-HT1A receptors [1]; raphe nucleus): 2.4 mg/kg
receptor occupancy at 1 mg/kg (5-HT1A receptors [1]; [14]): 15 ± 11.8%
receptor occupancy at 3 mg/kg (5-HT1A receptors [1]; [14]): 37 ± 5.6%
receptor occupancy at 10 mg/kg (5-HT1A receptors [1]; [14]): 58.1 ± 18.4%
receptor occupancy at 30 mg/kg (5-HT1A receptors [1]; [14]): 91.8 ± 3.4%
receptor occupancy at 1 mg/kg (5-HT1A receptors [1]; read-out: Occupancy (%) Raphe): 33.7 ± 14.5%
receptor occupancy at 3 mg/kg (5-HT1A receptors [1]; read-out: Occupancy (%) Raphe): 57.3 ± 2.8%
receptor occupancy at 10 mg/kg (5-HT1A receptors [1]; read-out: Occupancy (%) Raphe): 69.6 ± 14.6%
receptor occupancy at 30 mg/kg (5-HT1A receptors [1]; read-out: Occupancy (%) Raphe): 98.3 ± 1.7%
Slight increase in [35S]GTPγS binding (5-HT1A receptors [2]; high concentrations, hippocampus and raphe nucleus, p>0.05): not statistically significant
5-HT1A receptor binding (occupancy), dose-dependent up to (5-HT1A receptors [3]; intraperitoneal, 30 min after administration, irrespective of region): ~70%
ED50 (5-HT1A receptors [3]; hippocampus): 8.5 mg/kg
ED50 (5-HT1A receptors [3]; raphe nucleus): 7.3 mg/kg
Proportion of protein-bound drug in plasma or serum [4]: 57%
Occupancy of 5-HT1A autoreceptors (5-HT1A receptors [5]): 60%
Proportion of protein-bound drug in plasma or serum [6]: 52%
Blockage of 5-HT1A receptors by excess amounts of drug (5-HT1A receptors [7]): near-complete blockage

COCCCC/C(=N\OCCN)c1ccc(C(F)(F)F)cc1 [fluvoxamine, reference compound]
Effect on 5-HT1A receptor occupancies by pindolol (5-HT1A receptors [1]; 30 mg/kg oral, 30 min before pindolol treatment): had no effect

NCCc1c[nH]c2c(O)cc(O)cc12 [5,7-DHT, 5,7-dihydroxytryptamine, reference compound]
BPND for [11C]WAY-100635 after toxicant treatment (5-HT1A receptors [8]; hippocampus): almost unchanged
BPND for [11C]WAY-100635 after toxicant treatment (5-HT1A receptors [8]; raphe nucleus): profoundly decreased

CCCN(CCC)C1CCc2cccc(O)c2C1 (stereo not drawn) [8-OH-DPAT, 8-hydroxy-2-(di-n-propylamino) tetralin]
[35S]GTPγS binding (5-HT1A receptors [2]; hippocampus and raphe nucleus, addition of agonist): enhanced
[35S]GTPγS binding compared with 1 µM WAY-100635 (5-HT1A receptors [2]; raphe nucleus, 1 µM, p<0.01): significantly increased
